Results as given in patent publication US4764433A, “Agent for the protection of materials” (Bayer Aktiengesellschaft, priority 1985, dated 1988).
Converted amounts (≈) assume the structure as drawn.

Experiments:
Alternaria tenuis = assay: MIC against fungi (agar, beer wort and peptone); type: cell-based; details: Alternaria alternata, 336 h, 2 weeks at 28° C., 60 to 70% relative humidity, read-out: MIC values when substances according to the invention act on fungi
Method: (§1) Compounds according to the invention are added, in concentrations of 0.1 mg/l to 5,000 mg/l, to an agar prepared from beer wort and peptone.

Aspergillus niger = assay: MIC against fungi (agar, beer wort and peptone); type: cell-based; details: 336 h, 2 weeks at 28° C., 60 to 70% relative humidity, read-out: MIC values when substances according to the invention act on fungi
Method: as §1

Aureobasidium pullulans = assay: MIC against fungi (agar, beer wort and peptone); type: cell-based; details: 336 h, 2 weeks at 28° C., 60 to 70% relative humidity, read-out: MIC values when substances according to the invention act on fungi
Method: as §1

Chaetomium globosum = assay: MIC against fungi (agar, beer wort and peptone); type: cell-based; details: 336 h, 2 weeks at 28° C., 60 to 70% relative humidity, read-out: MIC values when substances according to the invention act on fungi
Method: as §1

Coniophora puteana [1] = assay: MIC against fungi (agar, beer wort and peptone); type: cell-based; details: 336 h, 2 weeks at 28° C., 60 to 70% relative humidity, read-out: MIC values when substances according to the invention act on fungi
Method: as §1

Lentinus tigrinus = assay: MIC against fungi (agar, beer wort and peptone); type: cell-based; details: 336 h, 2 weeks at 28° C., 60 to 70% relative humidity, read-out: MIC values when substances according to the invention act on fungi
Method: as §1

Penicillium glaucum = assay: MIC against fungi (agar, beer wort and peptone); type: cell-based; details: 336 h, 2 weeks at 28° C., 60 to 70% relative humidity, read-out: MIC values when substances according to the invention act on fungi
Method: as §1

Polyporus versicolor [2] = assay: MIC against fungi (agar, beer wort and peptone); type: cell-based; details: Trametes versicolor, 336 h, 2 weeks at 28° C., 60 to 70% relative humidity, read-out: MIC values when substances according to the invention act on fungi
Method: as §1

Sclerophoma pityophila = assay: MIC against fungi (agar, beer wort and peptone); type: cell-based; details: Sydowia polyspora, 336 h, 2 weeks at 28° C., 60 to 70% relative humidity, read-out: MIC values when substances according to the invention act on fungi
Method: as §1

Coniophora puteana [3] = assay: Limiting toxic values (toxicity limits) on pinewood; details: 6 weeks at 21° to 23° C.; concentrations at which timber still attacked - no longer attacked
Method: (§2) Determination of the limiting toxic values (kg/m^3 of timber) of active compounds according to the invention for Coniophora puteana and Polyporus versicolor on pinewood and beechwood, respectively.
(§3) The limiting toxic values are determined by a method modelled on the method described by H. P. Sutter, Int. Biodeterioration Bulletin, 14 (3), 1978, pages 95 to 99.
(§4) For each test, freshly cut, thin pieces of cross-cut timber (dimensions 40×40 mm, thickness about 2 mm) are impregnated in vacuo with solutions of varying concentrations of active compounds. In each case one concentration of active compound is used to impregnate 15 timber samples simultaneously. 5 of these are in each case used at the same time for a mycological test.
(§5) The amount of active compound absorbed is determined from the retention of solvent (determined by weighing the small piece of timber before and after impregnation), the density of the timber and the concentration of the active compound in the residual impregnating solution.
(§6) Before the mycological test, the test specimens are sterilized with propylene oxide and in each case 1 test specimen is brought into contact in a Petri dish with the fully developed mycellium of the test fungus on malt extract agar. The toxicity limits are determined visually after 6 weeks at 21° to 23° C.
(§7) The toxicity limits ([…] of timber) for substances according to the invention are shown in the table below; the toxicity limits indicate the concentrations at which the timber is still attacked and at which the timber is no longer attacked.

Polyporus versicolor [4] = assay: Limiting toxic values (toxicity limits) on beechwood; details: 6 weeks at 21° to 23° C.; concentrations at which timber still attacked - no longer attacked
Method: as §2, §3, §4, §5, §6, §7

Phytophthora infestans = type: in vivo; details: for fungicidal properties for plant protection: phytophthora test [tomatoes], sulphamides compared with N-sulphenylated benzenesulphonamides according to the invention; for % attack at an active compound concentration of 10 ppm: tomato plants, protective
[5] = cited from earlier work
slime organisms = assay: Action against slime organisms, MIC in Allen's nutrient solution; type: cell-based; details: 504 h, approx. 10^6 microbes/ml, 3 weeks at room temperature, read-out: MIC in mg/l when the substances act on slime organisms
Method: Substances according to the invention, dissolved in a little acetone, are used in concentrations of 0.1 to 100 mg/l in a particular case in Allen's nutrient solution (Arch. Mikrobiol., 17, 34 to 53 (1952)), containing, in 4 l of sterile water, 0.2 g of ammonium chloride, 4.0 g of sodium nitrate, 1.0 g of dipotassium hydrogen phosphate, 0.2 g of calcium chloride, 2.05 g of magnesium sulphate, 0.02 g of iron chloride and 1% of caprolactam. Shortly beforehand, the nutrient solution is infested with slime organisms (approx. 10^6 microbes/ml) which have been isolated from circulating spinning water used in the production of polyamide.

Structure (SMILES)	MIC (Alternaria tenuis)	MIC (Aspergillus niger)	MIC (Aureobasidium pullulans)	MIC (Chaetomium globosum)	MIC (Coniophora puteana [1])	MIC (Lentinus tigrinus)	MIC (Penicillium glaucum)	MIC (Polyporus versicolor [2])	MIC (Sclerophoma pityophila)	Toxicity Limits, Coniophora puteana on pinewood (Coniophora puteana [3])	Toxicity Limits, Polyporus versicolor on beechwood (Polyporus versicolor [4])	fungicidal properties for plant protection (Phytophthora infestans)	solubility in the formulating agents customary for timber preservatives [5]	MIC (slime organisms)	% attack at an active compound concentration of 10 ppm (Phytophthora infestans)
O=C1c2ccccc2C(=O)N1SC(F)(Cl)Cl [A, N-fluorodichloromethylthiophthalimide, reference compound]	10 µg/mL (≈ 35.7 µM)	200 µg/mL (≈ 714 µM)	50 µg/mL (≈ 179 µM)	100 µg/mL (≈ 357 µM)	2 µg/mL (≈ 7.14 µM)	2 µg/mL (≈ 7.14 µM)	35 µg/mL (≈ 125 µM)	50 µg/mL (≈ 179 µM)	10 µg/mL (≈ 35.7 µM)						
CN(C)S(=O)(=O)N(SC(F)(Cl)Cl)c1ccccc1 [B, N,N-dimethyl-N'-phenyl-N'-(fluorodichloromethylthio)-sulphamide, reference compound]	10 µg/mL (≈ 30 µM)	50 µg/mL (≈ 150 µM)	7.5 µg/mL (≈ 22.5 µM)	50 µg/mL (≈ 150 µM)	7.5 µg/mL (≈ 22.5 µM)	10 µg/mL (≈ 30 µM)	50 µg/mL (≈ 150 µM)	20 µg/mL (≈ 60 µM)	15 µg/mL (≈ 45 µM)	1.61-2.25 kg/m^3 of timber	2.23-2.81 kg/m^3 of timber	considerably better fungicidal properties for plant protection	very sparingly soluble		
Cc1ccc(S(=O)(=O)N(C)SC(F)(Cl)Cl)cc1 [Example 1, N-fluorodichloromethylthio-N-methylamide of 4-toluenesulphonic acid]	20 µg/mL (≈ 62.8 µM)	10 µg/mL (≈ 31.4 µM)	5 µg/mL (≈ 15.7 µM)	3.5 µg/mL (≈ 11 µM)	0.5 µg/mL (≈ 1.57 µM)	5 µg/mL (≈ 15.7 µM)	10 µg/mL (≈ 31.4 µM)	2 µg/mL (≈ 6.28 µM)	5 µg/mL (≈ 15.7 µM)	0.22-0.65 kg/m^3 of timber	2.2-2.9 kg/m^3 of timber			≤ 2 mg/L	
CCN(SC(F)(Cl)Cl)S(=O)(=O)c1ccccc1 [Example 2]		10 µg/mL (≈ 31.4 µM)		< 2 µg/mL			10 µg/mL (≈ 31.4 µM)			0.24-0.74 kg/m^3 of timber	1.4-2.4 kg/m^3 of timber			≤ 2 mg/L	
CCCCN(SC(F)(Cl)Cl)S(=O)(=O)c1ccccc1 [Example 3]										0.25-0.76 kg/m^3 of timber	0.63-1.29 kg/m^3 of timber				
CCN(SC(F)(Cl)Cl)S(=O)(=O)c1ccc(C)cc1 [Example 4]	10 µg/mL (≈ 30.1 µM)	10 µg/mL (≈ 30.1 µM)	3.5 µg/mL (≈ 10.5 µM)	7.5 µg/mL (≈ 22.6 µM)	0.3 µg/mL (≈ 0.903 µM)	0.5 µg/mL (≈ 1.5 µM)	20 µg/mL (≈ 60.2 µM)	0.5 µg/mL (≈ 1.5 µM)	3.5 µg/mL (≈ 10.5 µM)	0.65-1.3 kg/m^3 of timber	2.8-3.7 kg/m^3 of timber				
CCN(SC(F)(Cl)Cl)S(=O)(=O)c1ccc(Cl)cc1 [Example 6]	20 µg/mL (≈ 56.7 µM)	10 µg/mL (≈ 28.4 µM)	10 µg/mL (≈ 28.4 µM)	35 µg/mL (≈ 99.2 µM)	0.75 µg/mL (≈ 2.13 µM)	0.5 µg/mL (≈ 1.42 µM)	10 µg/mL (≈ 28.4 µM)	1 µg/mL (≈ 2.84 µM)	7.5 µg/mL (≈ 21.3 µM)						
Cc1ccc(S(=O)(=O)N(C)SC(F)(Cl)Cl)cc1[N+](=O)[O-] [Example 8]	5 µg/mL (≈ 13.8 µM)	20 µg/mL (≈ 55.1 µM)	5 µg/mL (≈ 13.8 µM)	15 µg/mL (≈ 41.3 µM)	0.75 µg/mL (≈ 2.06 µM)	5 µg/mL (≈ 13.8 µM)	20 µg/mL (≈ 55.1 µM)	7.5 µg/mL (≈ 20.6 µM)	5 µg/mL (≈ 13.8 µM)						
CN(SC(F)(Cl)Cl)S(=O)(=O)c1ccc([N+](=O)[O-])cc1 [Example 14]	35 µg/mL (≈ 100 µM)	20 µg/mL (≈ 57.3 µM)	5 µg/mL (≈ 14.3 µM)	20 µg/mL (≈ 57.3 µM)	3.5 µg/mL (≈ 10 µM)	5 µg/mL (≈ 14.3 µM)	20 µg/mL (≈ 57.3 µM)	10 µg/mL (≈ 28.6 µM)	3.5 µg/mL (≈ 10 µM)	0.26-0.79 kg/m^3 of timber	2.2-3.07 kg/m^3 of timber				
Cc1ccc(S(=O)(=O)N(C)SC(F)(Cl)Cl)cc1C [Example 17]		10 µg/mL (≈ 30.1 µM)		3.5 µg/mL (≈ 10.5 µM)			10 µg/mL (≈ 30.1 µM)								
Cc1ccc(C)c(S(=O)(=O)N(C)SC(F)(Cl)Cl)c1 [Example 19]	100 µg/mL (≈ 301 µM)	10 µg/mL (≈ 30.1 µM)	35 µg/mL (≈ 105 µM)	< 2 µg/mL	7.5 µg/mL (≈ 22.6 µM)	100 µg/mL (≈ 301 µM)	20 µg/mL (≈ 60.2 µM)	100 µg/mL (≈ 301 µM)	10 µg/mL (≈ 30.1 µM)	0.24-0.72 kg/m^3 of timber	1.07-1.76 kg/m^3 of timber				
COCCCN(SC(F)(Cl)Cl)S(=O)(=O)c1ccc(C)cc1 [Example 22]		20 µg/mL (≈ 53.1 µM)		5 µg/mL (≈ 13.3 µM)			35 µg/mL (≈ 93 µM)								
CN(SC(F)(Cl)Cl)S(=O)(=O)c1ccccc1 [Example 24]		5 µg/mL (≈ 16.4 µM)		3.5 µg/mL (≈ 11.5 µM)			5 µg/mL (≈ 16.4 µM)								
CN(SC(F)(Cl)Cl)S(=O)(=O)c1ccc(Cl)c(Cl)c1 [Example 25]		20 µg/mL (≈ 53.6 µM)		7.5 µg/mL (≈ 20.1 µM)			10 µg/mL (≈ 26.8 µM)								
CN(SC(F)(Cl)Cl)S(=O)(=O)c1ccc(Cl)c([N+](=O)[O-])c1 [Example 26]		50 µg/mL (≈ 130 µM)		20 µg/mL (≈ 52.1 µM)			20 µg/mL (≈ 52.1 µM)								
CN(SC(F)(Cl)Cl)S(=O)(=O)c1cccc([N+](=O)[O-])c1 [Example 27]		20 µg/mL (≈ 57.3 µM)		20 µg/mL (≈ 57.3 µM)			20 µg/mL (≈ 57.3 µM)								
CN(SC(F)(Cl)Cl)S(=O)(=O)c1cc(Cl)ccc1Cl [Example 28]		20 µg/mL (≈ 53.6 µM)		35 µg/mL (≈ 93.8 µM)			15 µg/mL (≈ 40.2 µM)								
Cc1ccc(N(SC(F)(Cl)Cl)S(=O)(=O)N(C)C)cc1 [N,N-dimethyl-N'-(4-tolyl)-N'-dichlorofluoromethylthio-sulphamide]												considerably better fungicidal properties for plant protection			
CN(C)S(=O)(=O)N(SC(F)(Cl)Cl)c1ccccc1 [drawing 12]															19%
Cc1ccc(N(SC(F)(Cl)Cl)S(=O)(=O)N(C)C)cc1 [drawing 13]															14%
